Like-named read-outs stand apart in the source and are kept apart here.
Tested on: dentine-pulp complex of rats
Experimental: The objective of this study was to check the inflammatory response of the pulp tissue and dentine tissue formation in rats after the use of composites made from hydroxiapatite as compared to the use of […] (CETEA 143/04). The composites were prepared and sterilized with ethylene oxide, following the procedures described previously. 36 six-week-old rats (Rattus norvergicus) of the Wistar lineage, weighing between 250 and 300g were used in this investigation.
The animals were placed in […] groups: (1) Calcium hydroxide; (2) Bioceramics HA and PLGA; (3) Negative control within four periods of time (1, 7. 15 and 30 days). The animals received an intraperitoneal anesthetic injection of 10 ml Ketamine 10% and 7.5 ml Xilazine 10% (body weight: 0.1ml/100g).
A cavity in the first upper molar oclussal face of the animals was made using a spherical drill n. 1/4 (ISO Maillefer), in total isolation, with water refrigeration and low rotation, keeping the animal in adequate equipment. No additional retention was supplied for the preparation of the cavity. Cavities and exposures were carefully cleaned with cotton balls and distilled water during four minutes. After being sacrificed, the animals underwent the histological processing of their teeth performed with the use of hematoxilin-eosin followed by a qualitative and quantitative histological analysis. The data was subjected to a ANOVA Test statistical analysis. The dentine bridge was measured with a 60-micrometer reticle.

[Ca+2].[OH-].[OH-] [group (1), Calcium hydroxide]
inflammatory response of the pulp tissue (after seven days): necrosed areas and a mild acute inflammatory process
inflammatory response of the pulp tissue (from the fourteenth day on): mild chronic infiltrate
formation of hard tissue (onset, periods 1, 7, 15 and 30 days): around the thirtieth day
